Results taken from patent US5688938A, “Calcium receptor-active molecules” (priority 1995, dated 1997).

Assays:
[1] = system: L-type voltage-sensitive Ca^2+ channel; experiment: block of extracellular Ca^2+-induced increases in [Ca^2+]i in rMTC 6-23 cells; assay type: cell-based, rat; conditions: read-out: IC50 for block of extracellular Ca^2+-induced increases in [Ca^2+]i
net positive charge = assay type: physicochemical; conditions: Table 1; at physiological pH
[2] = target: T1, parathyroid cell calcium receptor (Bos taurus, UniProt P35384); experiment: cell-based; assay type: cell-based
T1 sequence (P35384 21-1085 limits assumed): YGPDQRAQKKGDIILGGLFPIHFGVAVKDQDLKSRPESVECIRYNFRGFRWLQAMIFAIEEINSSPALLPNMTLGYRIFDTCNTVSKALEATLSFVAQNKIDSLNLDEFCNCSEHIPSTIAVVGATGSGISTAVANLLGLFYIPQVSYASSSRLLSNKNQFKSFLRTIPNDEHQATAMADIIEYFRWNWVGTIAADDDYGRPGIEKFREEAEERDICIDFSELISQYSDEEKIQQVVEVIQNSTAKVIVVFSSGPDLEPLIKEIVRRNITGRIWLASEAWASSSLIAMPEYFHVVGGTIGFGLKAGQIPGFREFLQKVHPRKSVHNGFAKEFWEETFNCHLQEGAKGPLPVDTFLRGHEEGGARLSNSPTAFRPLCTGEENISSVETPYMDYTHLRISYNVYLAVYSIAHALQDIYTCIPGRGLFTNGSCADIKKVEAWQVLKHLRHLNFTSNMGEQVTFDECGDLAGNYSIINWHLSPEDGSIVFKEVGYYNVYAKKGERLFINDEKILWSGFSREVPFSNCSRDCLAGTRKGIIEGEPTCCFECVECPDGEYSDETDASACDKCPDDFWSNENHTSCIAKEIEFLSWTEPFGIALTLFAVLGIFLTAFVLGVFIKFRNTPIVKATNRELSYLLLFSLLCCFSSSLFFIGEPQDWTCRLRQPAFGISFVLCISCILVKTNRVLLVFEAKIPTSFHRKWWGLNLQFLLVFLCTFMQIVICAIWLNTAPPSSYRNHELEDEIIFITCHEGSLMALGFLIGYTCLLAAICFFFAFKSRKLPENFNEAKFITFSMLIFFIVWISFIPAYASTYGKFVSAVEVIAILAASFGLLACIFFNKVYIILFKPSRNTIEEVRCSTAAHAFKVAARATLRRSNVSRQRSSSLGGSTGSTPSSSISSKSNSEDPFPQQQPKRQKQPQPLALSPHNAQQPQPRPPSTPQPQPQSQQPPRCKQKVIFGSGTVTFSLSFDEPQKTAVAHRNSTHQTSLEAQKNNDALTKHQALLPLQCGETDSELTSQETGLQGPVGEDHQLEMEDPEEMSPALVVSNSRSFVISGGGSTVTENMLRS
Procedure: For example,.bovine parathyroid cells loaded with fura-2 are initially suspended in buffer containing 0.5 mM CaCl2. A test substance is added to the cuvette in a small volume (5-15 μl) and changes in the fluorescence signal are measured. Cumulative increases in the concentration of the test substance are made in the cuvette until some predetermined concentration is achieved or no further changes in fluorescence are noted.
This section describes procedures used to obtain and treat parathyroid cells from calves and humans. […] Human parathyroid glands, were obtained from patients undergoing surgical removal of parathyroid tissue for primary or uremic hyperparathyroidism (uremic HPT), and were treated similarly to bovine tissue.
Glands were trimmed of excess fat and connective tissue and then minced with fine scissors into cubes approximately 2-3 mm on a side. Dissociated parathyroid cells were prepared by collagenase digestion and then purified by centrifugation in Percoll buffer. The resultant parathyroid cell preparation was essentially devoid of red blood cells, adipocytes, and capillary tissue as assessed by phase contrast microscopy and Sudan black B staining. Dissociated and purified parathyroid cells were present as small clusters containing 5 to 20 cells.
The cells were then transferred to plastic flasks (75 or 150 cm^2 ; Falcon) and incubated overnight at 37° C. in a humid atmosphere of 5% CO2. No serum is added to these overnight cultures, since its presence allows the cells to attach to the plastic, undergo proliferation, and dedifferentiate. Cells cultured under the above conditions were readily removed from the flasks by decanting, and show the same viability as freshly prepared cells.
The cells were then pelleted, resuspended in the same buffer, but lacking the ester, and incubated a further 15 minutes at 37° C. The cells were subsequently washed twice with PCB containing 0.5 mM CaCl2 and 0.5% BSA and maintained at room temperature (about 20° C.). Immediately before use, the cells were diluted five-fold with prewarmed 0.5mM CaCl2 -PCB to obtain a final BSA concentration of 0.1%. The concentration of cells in the cuvette used for fluorescence recording was 1-2×10^6 /ml.
The fluorescence of indicator-loaded cells was measured at 37° C. in a spectrofluorimeter (Biomedical Instrumentation Group, University of Pennsylvania, Philadelphia, Pa.) equipped with a thermostated cuvette holder and magnetic stirrer using excitation and emission wavelengths of 340 and 510 nm, respectively. […] Leakage of dye is dependent on temperature and most occurs within the first 2 minutes after warming the cells in the cuvette. Dye leakage increases only very slowly thereafter. To correct the calibration for dye leakage, cells were placed in the cuvette and stirred at 37° C. for 2-3 minutes. The cell suspension was then removed, the cells pelleted, and the supernatant returned to a clean cuvette. […] This estimate was subtracted from the apparent Fmin.
Dissociated bovine parathyroid cells were purified on gradients of Percoll and cultured overnight in serum-free medium. […] That is,

calcium receptor = target: T2, calcium receptor (Homo sapiens, UniProt P41180); experiment: Xenopus oocytes injected with human parathyroid mRNA; assay type: cell-based
T2 construct: Xenopus oocytes injected with poly(A)+ mRNA from human hyperplastic parathyroid tissue
T2 sequence (P41180 20-1078): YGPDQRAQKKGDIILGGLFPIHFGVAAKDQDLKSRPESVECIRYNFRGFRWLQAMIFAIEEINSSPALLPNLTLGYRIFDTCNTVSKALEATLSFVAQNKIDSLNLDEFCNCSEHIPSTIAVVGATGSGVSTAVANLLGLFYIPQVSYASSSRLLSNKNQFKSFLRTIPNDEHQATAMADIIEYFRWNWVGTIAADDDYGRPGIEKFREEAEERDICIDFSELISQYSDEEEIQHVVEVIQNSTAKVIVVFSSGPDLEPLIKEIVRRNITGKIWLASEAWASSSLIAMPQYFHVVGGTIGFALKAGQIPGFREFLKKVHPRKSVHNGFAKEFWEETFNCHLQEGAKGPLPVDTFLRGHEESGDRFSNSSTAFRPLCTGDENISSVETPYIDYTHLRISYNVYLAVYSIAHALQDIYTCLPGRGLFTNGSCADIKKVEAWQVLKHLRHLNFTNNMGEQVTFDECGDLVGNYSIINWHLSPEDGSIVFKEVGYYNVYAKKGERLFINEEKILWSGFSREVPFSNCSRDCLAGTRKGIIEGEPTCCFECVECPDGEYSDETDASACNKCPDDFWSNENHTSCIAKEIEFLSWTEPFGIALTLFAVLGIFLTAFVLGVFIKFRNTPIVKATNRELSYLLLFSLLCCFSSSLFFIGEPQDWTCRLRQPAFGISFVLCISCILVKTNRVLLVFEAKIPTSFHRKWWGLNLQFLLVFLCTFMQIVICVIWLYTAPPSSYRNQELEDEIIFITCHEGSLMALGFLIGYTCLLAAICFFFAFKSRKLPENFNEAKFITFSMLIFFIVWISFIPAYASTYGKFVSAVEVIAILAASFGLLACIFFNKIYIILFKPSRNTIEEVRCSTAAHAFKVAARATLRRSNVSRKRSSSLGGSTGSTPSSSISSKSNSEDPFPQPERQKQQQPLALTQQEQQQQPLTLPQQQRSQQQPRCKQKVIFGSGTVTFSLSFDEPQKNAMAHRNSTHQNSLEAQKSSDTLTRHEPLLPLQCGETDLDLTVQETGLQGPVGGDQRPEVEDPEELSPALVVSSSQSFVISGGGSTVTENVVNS
Procedure: Oocytes were injected with poly(A)+-enriched mRNA from human parathyroid tissue (hyperplastic glands from a case of secondary HPT).
(§1) Following incubation, an oocyte was placed into a 100-μl plastic chamber and superfused with MBS at a flow rate of 0.5 ml/min using a peristaltic pump. Test molecules or inorganic polycations were added by rapidly moving the tubing into different buffers. Recording and current passing electrodes were constructed from thin-wall capillary tubing pulled to a resistance of 1-3 Mohms and filled with 3M KCl. […] Currents were recorded directly onto a strip chart recorder.
Using this screen allows one to test for an action directly on the calcium receptor. Oocytes expressing the calcium receptor also responded to several molecules active on intact parathyroid cells when screened as follows. […] This offers rather compelling evidence showing that these molecules act on the calcium receptor or on some other protein intimately associated with its function.

[3] = system: parathyroid cell calcium receptor; experiment: Cl^- current in Xenopus oocytes injected with (bovine) parathyroid cell mRNA; assay type: cell-based; conditions: fendiline 100 μM
Procedure: as §1

rat osteoclasts = experiment: inhibition of bone resorption (pit formation on bovine cortical bone slices); assay type: cell-based; conditions: Osteoclast, 24 hours, read-out: IC50 for inhibition of bone resorption in vitro
Description: This was done by morphometric analysis of pit formation on thin slices of bovine cortical bone using scanning electron microscopy.

[4] = system: osteoclast calcium receptor; experiment: [Ca^2+]i (indo-1) in rat osteoclasts; assay type: cell-based; conditions: with or without 1 mM extracellular CaCl2
bovine parathyroid cells [5] = experiment: inositol phosphate formation in bovine parathyroid cells; assay type: cell-based
Procedure: This section describes procedures measuring inositol phosphate formation. Membrane phospholipids were labeled by incubating parathyroid cells with 4 μCi/ml ^3 H-myo-inositol for 20-24 hours. Cells were then washed and resuspended in PCB containing 0.5 mM CaCl2 and 0.1% BSA. Incubations were performed in microfuge tubes in the absence or presence of various concentrations of organic polycation for different times. Reactions were terminated by the addition of 1 ml chloroform-methanol-12N HCl (200:100:1; v/v/v). Aqueous phytic acid hydrolysate (200 μl; 25 μg phosphate/tube). The tubes were centrifuged and 600 μl of the aqueous phase was diluted into 10 ml water.
Inositol phosphates were separated by ion-exchange chromatography using AG1-X8 in either the chloride- or formate-form. When only IP3 levels were to be determined, the chloride-form was used, whereas the formate form was used to resolve the major inositol phosphates (IP3, IP2, and IP1). For determination of just IP3, the diluted sample was applied to the chloride-form column and the column was washed with 10 ml 30 mM HCl followed by 6 ml 90 mM HCl and the IP3 was eluted with 3 ml 500 mM HCl. The last eluate was diluted and counted. […] The eluted samples from the formate columns were rotary evaporated, the residues brought up in cocktail, and counted.
The isomeric forms of IP3 were evaluated by HPLC. […]

bovine parathyroid cells [6] = experiment: PTH secretion from bovine parathyroid cells; assay type: cell-based
bovine parathyroid cells [7] = assay type: cell-based
Procedure: This section describes measuring cyclic AMP levels. Cells were incubated as above for PTH secretion studies and at the end of the incubation, a 0.15-ml sample was taken and transferred to 0.85 ml of hot (70° C.) water and heated at this temperature for 5-10 minutes. The tubes were subsequently frozen and thawed several times and the cellular debris sedimented by centrifugation. Portions of the supernatant were acetylated and cyclic AMP concentrations determined by radioimmunoassay.
Bovine parathyroid cells were cultured for 16 hours with or without 100 ng/ml pertussis toxin. […] Each value is the mean±SEM of three experiments.

`NCCCNCCCCNCCCNCCCN(O)CCCNC(=O)Cc1c[nH]c2cccc(O)c12` [NPS 015] gave an IC50 [1] of 3 µM.

In the case of `C1CNCCNCCNCCNCCNCCN1` [Hexacyclen, 1,4,7,10,13,16-hexaaza-cyclooctadecane, reference compound], the “Net (+) Charge” value (net positive charge) is reported as “+6”, the “potency relative to NPS 383” value ([2]; [Ca^2+]i) is reported as 7 -fold and the “potency relative to pentaethylenehexamine” value ([2]; [Ca^2+]i) is reported as 25 -fold. For the same compound, the “effective concentration for mobilization of intracellular Ca^2+ in oocytes” value (calcium receptor) was 135 µM.

With `CC(NCCC(c1ccccc1)c1ccccc1)c1ccccc1` (racemic) [Fendiline, reference compound] the “Cl^- current in oocytes” value [3] was “oscillatory increases”.

In the case of `CC(Cc1ccccc1)NCCC(c1ccccc1)c1ccccc1` (stereo not shown) [Prenylamine], the IC50 (rat osteoclasts) is reported as 10 µM and the “mobilization of [Ca^2+]i in rat osteoclasts” value [4] is reported as “mobilization of [Ca^2+ ]i”.

With protamine the “formation of IP3” value (bovine parathyroid cells [5]) was “rapid (within 30 seconds) increase”, the “increases in [Ca^2+]i” value [2] was “rapid and transient increases in [Ca^2+ ]i” and the “inhibition of PTH secretion” value (bovine parathyroid cells [6]) was “inhibited PTH secretion to the same extent as extracellular Ca^2+”. For the same compound, the “cyclic AMP (+PTx)” value (bovine parathyroid cells [7]) was 89 ± 9 % of control and the “cyclic AMP (control, without pertussis toxin)” value (bovine parathyroid cells [7]; 10 μM isoproterenol, 2.0 mM Ca^2+, or 0.5 mM Ca^2+ with 200 μM spermine, 30 μM neomycin B or 2 μg/ml protamine, mean±SEM of three experiments) was 20 ± 4 % of control.
